Results on 15 compounds are retold here after ChEMBL document CHEMBL2086355, “Synthesis and SAR of 2',3'-bis-O-substituted N(6), 5'-bis-ureidoadenosine derivatives: implications for prodrug delivery and mechanism of action” (Bioorg Med Chem Lett, 2012).

One assay deals with L1210. Kind of assay: Antiproliferative activity against mouse L1210 cells after 48 hrs by Coulter counting analysis. It is filed as functional, cell-based. As to conditions: L1210, 48 h.
The test system of a further assay is FM3A. As to the kind of experiment: Antiproliferative activity against mouse FM3A cells after 48 hrs by Coulter counting analysis. It is filed as functional, cell-based.
For a further assay, the system named is CCRF-CEM. Kind of assay: Antiproliferative activity against human CEM cells after 72 hrs by Coulter counting analysis. It is filed as functional, cell-based.
The next assay concerns HeLa. As to the kind of experiment: Antiproliferative activity against human HeLa cells after 96 hrs by Coulter counting analysis. It is filed as functional, cell-based.
The target in assay [1] is Bone morphogenetic protein receptor type-1B (Homo sapiens) (UniProt O00238). Kind of assay: Inhibition of BMPR1b assessed as activity remaining at 10 uM by competitive binding inhibition assay.

Values after ≈ are worked out from the molar mass of the structure shown.

Bone morphogenetic protein receptor type-1B (Homo sapiens), sequence (O00238 whole entry): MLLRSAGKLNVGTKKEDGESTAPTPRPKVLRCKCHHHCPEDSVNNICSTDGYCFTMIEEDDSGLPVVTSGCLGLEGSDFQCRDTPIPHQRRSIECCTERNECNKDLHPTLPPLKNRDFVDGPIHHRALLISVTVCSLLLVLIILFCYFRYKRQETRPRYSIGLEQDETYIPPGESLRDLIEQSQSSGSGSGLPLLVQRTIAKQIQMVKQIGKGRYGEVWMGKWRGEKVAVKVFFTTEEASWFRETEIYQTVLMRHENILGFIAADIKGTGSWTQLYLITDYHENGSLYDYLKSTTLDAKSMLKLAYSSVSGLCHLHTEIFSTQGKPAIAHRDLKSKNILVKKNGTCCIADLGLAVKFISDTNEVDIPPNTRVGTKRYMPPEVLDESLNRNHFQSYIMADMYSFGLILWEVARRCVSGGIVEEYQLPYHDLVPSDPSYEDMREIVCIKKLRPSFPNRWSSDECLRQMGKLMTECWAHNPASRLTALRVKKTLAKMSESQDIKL

As to `CNC(=O)NC[C@H]1O[C@@H](n2cnc3c(NC(=O)Nc4ccccc4)ncnc32)[C@H](O[Si](c2ccccc2)(c2ccccc2)C(C)(C)C)[C@@H]1O[Si](c1ccccc1)(c1ccccc1)C(C)(C)C`, the IC50 in the assay with L1210 is greater than 200 µg/mL; in the assay on FM3A it was greater than 200 µg/mL; with CCRF-CEM, no less than 200 µg/mL; in the assay with HeLa, 104 µg/mL (≈ 113 µM). Further, the Activity in assay [1] was 100%.

For `CNC(=O)NC[C@H]1O[C@@H](n2cnc3c(NC(=O)Nc4ccccc4)ncnc32)[C@H](OC(=O)C(C)C)[C@@H]1OC(=O)C(C)C`, the IC50 with L1210 came out at 29 µg/mL (≈ 49.8 µM); in the assay on FM3A, 44 µg/mL (≈ 75.5 µM); with CCRF-CEM, 28 µg/mL (≈ 48.1 µM); with HeLa it was 73 µg/mL (≈ 125 µM). Moreover, the Activity in assay [1] worked out at 100%.

In the case of `CNC(=O)NC[C@H]1O[C@@H](n2cnc3c(NC(=O)Nc4ccccc4)ncnc32)[C@H](O[Si](C(C)C)(C(C)C)C(C)C)[C@@H]1O[Si](C(C)C)(C(C)C)C(C)C`, the IC50 with L1210 was greater than 200 µg/mL; with FM3A, greater than 200 µg/mL; in the assay on CCRF-CEM it was 142 µg/mL (≈ 188 µM); in the assay with HeLa it was no less than 200 µg/mL. The Activity in assay [1] amounted to 100%.

With `CNC(=O)NC[C@H]1O[C@@H](n2cnc3c(N)ncnc32)[C@H](OC(C)=O)[C@@H]1OC(C)=O`, the IC50 in the assay with L1210 is 112 µg/mL (≈ 275 µM); in the assay on FM3A, greater than 200 µg/mL; in the assay on CCRF-CEM it was greater than 200 µg/mL; in the assay on HeLa, greater than 200 µg/mL.

As for `CCCCCCCCCCCCCCCC(=O)O[C@@H]1[C@H](OC(=O)CCCCCCCCCCCCCCC)[C@@H](CNC(=O)NC)O[C@H]1n1cnc2c(NC(=O)Nc3ccccc3)ncnc21`, the IC50 in the assay on L1210 is greater than 100 µg/mL; in the assay with FM3A, greater than 200 µg/mL; in the assay on CCRF-CEM, greater than 100 µg/mL; in the assay with HeLa it was greater than 100 µg/mL.

As to `CCCCCCCC(=O)O[C@@H]1[C@H](OC(=O)CCCCCCC)[C@@H](CNC(=O)NC)O[C@H]1n1cnc2c(NC(=O)Nc3ccccc3)ncnc21`, the IC50 with L1210 is 11 µg/mL (≈ 15.8 µM); in the assay on FM3A, 32 µg/mL (≈ 46.1 µM); in the assay with CCRF-CEM it was 12 µg/mL (≈ 17.3 µM); in the assay with HeLa it was 16 µg/mL (≈ 23 µM).

With `CCCCCCCCCC(=O)O[C@@H]1[C@H](OC(=O)CCCCCCCCC)[C@@H](CNC(=O)NC)O[C@H]1n1cnc2c(NC(=O)Nc3ccccc3)ncnc21`, the IC50 was greater than 100 µg/mL in the assay with L1210, 140 µg/mL (≈ 186 µM) in the assay with FM3A, greater than 100 µg/mL in the assay with CCRF-CEM and greater than 100 µg/mL with HeLa.

Regarding `CCCCCC(=O)O[C@@H]1[C@H](OC(=O)CCCCC)[C@@H](CNC(=O)NC)O[C@H]1n1cnc2c(NC(=O)Nc3ccccc3)ncnc21`, the IC50 is 9.5 µg/mL (≈ 14.9 µM) in the assay with L1210, 20 µg/mL (≈ 31.3 µM) in the assay on FM3A, 10 µg/mL (≈ 15.7 µM) in the assay with CCRF-CEM and 15 µg/mL (≈ 23.5 µM) with HeLa.

As for `CNC(=O)NC[C@H]1O[C@@H](n2cnc3c(N)ncnc32)[C@H](OC(=O)C(C)C)[C@@H]1OC(=O)C(C)C`, the IC50 amounted to 87 µg/mL (≈ 188 µM) in the assay on L1210, 107 µg/mL (≈ 231 µM) in the assay with FM3A, 88 µg/mL (≈ 190 µM) in the assay with CCRF-CEM and 99 µg/mL (≈ 214 µM) in the assay on HeLa.

Regarding `CNC(=O)NC[C@H]1O[C@@H](n2cnc3c(NC(=O)Nc4ccccc4)ncnc32)[C@H](OC(=O)c2ccccc2)[C@@H]1OC(=O)c1ccccc1`, the 50% inhibitory concentration (IC50) with L1210 is 154 µg/mL (≈ 237 µM); in the assay on FM3A it was 61 µg/mL (≈ 93.8 µM); in the assay on CCRF-CEM it was greater than 200 µg/mL; with HeLa it was greater than 200 µg/mL. In assay [1], the Activity turned out to be 100%.

For the compound `CNC(=O)NC[C@H]1O[C@@H](n2cnc3c(N)ncnc32)[C@H](OC(=O)c2ccccc2)[C@@H]1OC(=O)c1ccccc1`, the IC50 came out at 16 µg/mL (≈ 30.1 µM) in the assay with L1210, 36 µg/mL (≈ 67.7 µM) with FM3A, 19 µg/mL (≈ 35.7 µM) in the assay on CCRF-CEM and 40 µg/mL (≈ 75.3 µM) in the assay with HeLa.

As to `CC[Si](CC)(CC)O[C@@H]1[C@H](O[Si](CC)(CC)CC)[C@@H](CNC(=O)NC)O[C@H]1n1cnc2c(NC(=O)Nc3ccccc3)ncnc21`, the IC50 with L1210 stood at 3.8 µg/mL (≈ 5.66 µM); in the assay on FM3A, 3 µg/mL (≈ 4.47 µM); in the assay with CCRF-CEM, 4.2 µg/mL (≈ 6.26 µM); with HeLa, 3.7 µg/mL (≈ 5.51 µM). For the same compound, the Activity in assay [1] turned out to be 100%.

As to `CNC(=O)NC[C@H]1O[C@@H](n2cnc3c(NC(=O)Nc4ccccc4)ncnc32)[C@H](OC(C)=O)[C@@H]1OC(C)=O`, the IC50 in the assay with L1210 is 97 µg/mL (≈ 184 µM); in the assay with FM3A, 150 µg/mL (≈ 285 µM); with CCRF-CEM, 107 µg/mL (≈ 203 µM); in the assay with HeLa it was greater than 200 µg/mL. In assay [1], the Activity came to 95%.

`CCCC(=O)O[C@@H]1[C@H](OC(=O)CCC)[C@@H](CNC(=O)NC)O[C@H]1n1cnc2c(NC(=O)Nc3ccccc3)ncnc21`: the IC50 came out at 20 µg/mL (≈ 34.3 µM) with L1210, 18 µg/mL (≈ 30.9 µM) in the assay on FM3A, 29 µg/mL (≈ 49.8 µM) in the assay with CCRF-CEM and 58 µg/mL (≈ 99.6 µM) in the assay on HeLa.

Turning to `CNC(=O)NC[C@H]1O[C@@H](n2cnc3c(NC(=O)Nc4ccccc4)ncnc32)[C@H](OC(=O)C(C)(C)C)[C@@H]1OC(=O)C(C)(C)C`, the IC50 was 9.7 µg/mL (≈ 15.9 µM) with L1210, 15 µg/mL (≈ 24.6 µM) in the assay on FM3A, 20 µg/mL (≈ 32.8 µM) with CCRF-CEM and 17 µg/mL (≈ 27.8 µM) in the assay with HeLa.
